This note sets out measurements from paper PMC5513037, “Examining the influence of specificity ligands and ATP-competitive ligands on the overall effectiveness of bivalent kinase inhibitors” (Proteome Science, 2017).

SMILES strings stand for the structures. pIC50: −log10 of the molar value.

One test addresses PSKH1 (Homo sapiens, UniProt P11801). Description: biochemical.
A further test has as its target T1, BTK (Homo sapiens, UniProt Q06187).
T1 construct: endogenous in cells; host or cells: K562
Briefly: KAM-matrix competition in K562 lysate. It is filed as binding. As to the method:
(§1) Supplement 12953_2017_125_MOESM1_ESM.zip/MS_Supp Info.xlsx, sheet "KAM" | column: 10 uM KAM; 1 uM KAM; 0.1 uM KAM; 0.01 uM KAM; 0.001 uM KAM; RB50

Another test deals with T2, MAP3K9 (Homo sapiens, UniProt P80192).
T2 construct: endogenous in cells; host or cells: K562
T2 sequence (P80192 whole entry): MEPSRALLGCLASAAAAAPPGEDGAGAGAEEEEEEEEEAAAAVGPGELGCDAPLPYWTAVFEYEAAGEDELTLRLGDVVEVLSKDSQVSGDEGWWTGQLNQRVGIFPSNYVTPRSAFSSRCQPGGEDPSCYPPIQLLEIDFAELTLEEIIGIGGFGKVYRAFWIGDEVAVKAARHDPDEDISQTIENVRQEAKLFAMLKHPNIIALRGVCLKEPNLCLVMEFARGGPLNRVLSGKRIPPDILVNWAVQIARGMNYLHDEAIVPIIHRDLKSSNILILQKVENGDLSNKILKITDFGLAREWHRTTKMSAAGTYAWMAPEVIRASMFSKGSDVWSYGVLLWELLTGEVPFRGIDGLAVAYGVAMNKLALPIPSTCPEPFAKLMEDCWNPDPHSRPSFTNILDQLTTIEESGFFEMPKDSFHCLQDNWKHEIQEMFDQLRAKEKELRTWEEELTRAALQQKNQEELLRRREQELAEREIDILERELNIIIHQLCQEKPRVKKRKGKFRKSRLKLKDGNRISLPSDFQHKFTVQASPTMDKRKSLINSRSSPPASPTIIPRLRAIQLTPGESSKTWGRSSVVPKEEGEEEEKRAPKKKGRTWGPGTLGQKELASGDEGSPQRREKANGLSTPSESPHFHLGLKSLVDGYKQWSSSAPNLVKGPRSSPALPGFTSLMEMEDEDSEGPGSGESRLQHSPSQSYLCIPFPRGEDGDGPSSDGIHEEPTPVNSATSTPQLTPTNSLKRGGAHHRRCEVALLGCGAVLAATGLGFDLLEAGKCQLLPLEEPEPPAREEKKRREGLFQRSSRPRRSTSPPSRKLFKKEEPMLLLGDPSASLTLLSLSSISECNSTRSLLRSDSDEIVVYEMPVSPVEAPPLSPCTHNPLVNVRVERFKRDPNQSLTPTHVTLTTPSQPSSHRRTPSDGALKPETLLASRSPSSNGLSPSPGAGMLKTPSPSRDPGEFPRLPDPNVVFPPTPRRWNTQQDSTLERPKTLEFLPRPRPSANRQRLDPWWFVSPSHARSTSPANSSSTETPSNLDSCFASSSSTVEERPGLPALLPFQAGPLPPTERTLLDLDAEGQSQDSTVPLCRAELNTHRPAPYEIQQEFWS
Briefly: KAM-matrix competition in K562 lysate. It is filed as binding. As to the method: as §1

Another test has as its target T3, MERTK (Homo sapiens, UniProt Q12866).
T3 construct: endogenous in cells; host or cells: K562
T3 sequence (Q12866 21-999): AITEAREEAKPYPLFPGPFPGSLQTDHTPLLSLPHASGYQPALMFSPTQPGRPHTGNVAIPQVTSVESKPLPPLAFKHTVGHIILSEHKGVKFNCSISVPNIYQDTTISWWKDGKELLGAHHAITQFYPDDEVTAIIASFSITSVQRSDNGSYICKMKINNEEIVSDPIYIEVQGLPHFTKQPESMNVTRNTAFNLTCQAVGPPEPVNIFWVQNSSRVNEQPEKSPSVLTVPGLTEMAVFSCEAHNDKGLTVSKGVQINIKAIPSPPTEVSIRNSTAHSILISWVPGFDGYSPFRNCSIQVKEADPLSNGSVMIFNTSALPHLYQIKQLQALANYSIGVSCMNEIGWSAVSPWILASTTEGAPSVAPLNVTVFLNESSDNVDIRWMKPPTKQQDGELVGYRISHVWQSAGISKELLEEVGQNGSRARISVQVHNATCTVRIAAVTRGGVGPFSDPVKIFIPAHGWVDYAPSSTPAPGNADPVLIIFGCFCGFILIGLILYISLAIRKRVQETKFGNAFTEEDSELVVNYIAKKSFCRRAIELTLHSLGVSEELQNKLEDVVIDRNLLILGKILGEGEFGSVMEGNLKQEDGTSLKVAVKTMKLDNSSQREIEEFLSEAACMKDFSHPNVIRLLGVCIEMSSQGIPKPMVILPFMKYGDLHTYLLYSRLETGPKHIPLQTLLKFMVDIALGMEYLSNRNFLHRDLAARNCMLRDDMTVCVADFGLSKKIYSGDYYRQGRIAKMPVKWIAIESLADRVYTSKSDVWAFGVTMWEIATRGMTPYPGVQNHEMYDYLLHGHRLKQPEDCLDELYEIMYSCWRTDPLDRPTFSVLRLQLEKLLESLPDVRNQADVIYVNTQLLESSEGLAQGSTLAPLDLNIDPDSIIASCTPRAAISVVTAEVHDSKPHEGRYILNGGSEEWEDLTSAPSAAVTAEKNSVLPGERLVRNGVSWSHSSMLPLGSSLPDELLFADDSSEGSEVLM
Description: KAM-matrix competition in K562 lysate. It is filed as binding. As to the method:
as §1

Another test concerns the target T4, RPS6KC1 (Homo sapiens, UniProt Q96S38).
T4 construct: endogenous in cells; host or cells: K562 cell lysate
T4 sequence (Q96S38 1-1066): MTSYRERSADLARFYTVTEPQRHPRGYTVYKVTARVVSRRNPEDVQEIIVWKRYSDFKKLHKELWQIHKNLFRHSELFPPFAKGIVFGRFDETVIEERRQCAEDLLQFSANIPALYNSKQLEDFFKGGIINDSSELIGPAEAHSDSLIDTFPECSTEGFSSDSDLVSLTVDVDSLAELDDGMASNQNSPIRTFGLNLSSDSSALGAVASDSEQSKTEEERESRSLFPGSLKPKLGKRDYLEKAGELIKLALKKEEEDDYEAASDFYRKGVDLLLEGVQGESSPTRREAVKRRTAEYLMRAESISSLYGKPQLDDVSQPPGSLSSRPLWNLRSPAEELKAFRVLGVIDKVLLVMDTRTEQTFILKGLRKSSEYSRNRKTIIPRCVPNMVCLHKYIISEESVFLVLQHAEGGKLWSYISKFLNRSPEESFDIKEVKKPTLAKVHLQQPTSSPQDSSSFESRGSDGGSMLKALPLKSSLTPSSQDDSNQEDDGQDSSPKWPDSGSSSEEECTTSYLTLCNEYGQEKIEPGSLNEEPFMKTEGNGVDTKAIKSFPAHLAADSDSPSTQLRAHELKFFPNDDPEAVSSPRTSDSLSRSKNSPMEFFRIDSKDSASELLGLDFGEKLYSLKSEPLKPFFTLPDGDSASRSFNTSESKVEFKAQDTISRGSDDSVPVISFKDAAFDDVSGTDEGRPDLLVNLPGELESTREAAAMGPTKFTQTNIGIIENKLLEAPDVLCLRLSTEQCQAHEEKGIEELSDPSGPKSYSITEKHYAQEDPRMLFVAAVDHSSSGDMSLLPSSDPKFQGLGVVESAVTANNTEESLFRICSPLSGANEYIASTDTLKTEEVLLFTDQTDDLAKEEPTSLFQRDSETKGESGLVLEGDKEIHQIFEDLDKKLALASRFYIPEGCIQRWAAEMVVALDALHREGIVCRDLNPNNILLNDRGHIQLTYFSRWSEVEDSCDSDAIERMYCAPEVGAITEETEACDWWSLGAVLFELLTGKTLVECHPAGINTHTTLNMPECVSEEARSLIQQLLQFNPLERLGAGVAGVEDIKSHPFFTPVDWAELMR
Description: KAM-matrix competition in K562 lysate. It is filed as binding. As to the method:
Supplement 12953_2017_125_MOESM1_ESM.zip/MS_Supp Info.xlsx, sheet "KAM" | column: 10 uM KAM; 1 uM KAM; 0.1 uM KAM; 0.001 uM KAM; RB50

In a further test the target is T5, TAF1L (Homo sapiens, UniProt Q8IZX4).
T5 construct: endogenous in cells; host or cells: K562
T5 sequence (Q8IZX4 whole entry): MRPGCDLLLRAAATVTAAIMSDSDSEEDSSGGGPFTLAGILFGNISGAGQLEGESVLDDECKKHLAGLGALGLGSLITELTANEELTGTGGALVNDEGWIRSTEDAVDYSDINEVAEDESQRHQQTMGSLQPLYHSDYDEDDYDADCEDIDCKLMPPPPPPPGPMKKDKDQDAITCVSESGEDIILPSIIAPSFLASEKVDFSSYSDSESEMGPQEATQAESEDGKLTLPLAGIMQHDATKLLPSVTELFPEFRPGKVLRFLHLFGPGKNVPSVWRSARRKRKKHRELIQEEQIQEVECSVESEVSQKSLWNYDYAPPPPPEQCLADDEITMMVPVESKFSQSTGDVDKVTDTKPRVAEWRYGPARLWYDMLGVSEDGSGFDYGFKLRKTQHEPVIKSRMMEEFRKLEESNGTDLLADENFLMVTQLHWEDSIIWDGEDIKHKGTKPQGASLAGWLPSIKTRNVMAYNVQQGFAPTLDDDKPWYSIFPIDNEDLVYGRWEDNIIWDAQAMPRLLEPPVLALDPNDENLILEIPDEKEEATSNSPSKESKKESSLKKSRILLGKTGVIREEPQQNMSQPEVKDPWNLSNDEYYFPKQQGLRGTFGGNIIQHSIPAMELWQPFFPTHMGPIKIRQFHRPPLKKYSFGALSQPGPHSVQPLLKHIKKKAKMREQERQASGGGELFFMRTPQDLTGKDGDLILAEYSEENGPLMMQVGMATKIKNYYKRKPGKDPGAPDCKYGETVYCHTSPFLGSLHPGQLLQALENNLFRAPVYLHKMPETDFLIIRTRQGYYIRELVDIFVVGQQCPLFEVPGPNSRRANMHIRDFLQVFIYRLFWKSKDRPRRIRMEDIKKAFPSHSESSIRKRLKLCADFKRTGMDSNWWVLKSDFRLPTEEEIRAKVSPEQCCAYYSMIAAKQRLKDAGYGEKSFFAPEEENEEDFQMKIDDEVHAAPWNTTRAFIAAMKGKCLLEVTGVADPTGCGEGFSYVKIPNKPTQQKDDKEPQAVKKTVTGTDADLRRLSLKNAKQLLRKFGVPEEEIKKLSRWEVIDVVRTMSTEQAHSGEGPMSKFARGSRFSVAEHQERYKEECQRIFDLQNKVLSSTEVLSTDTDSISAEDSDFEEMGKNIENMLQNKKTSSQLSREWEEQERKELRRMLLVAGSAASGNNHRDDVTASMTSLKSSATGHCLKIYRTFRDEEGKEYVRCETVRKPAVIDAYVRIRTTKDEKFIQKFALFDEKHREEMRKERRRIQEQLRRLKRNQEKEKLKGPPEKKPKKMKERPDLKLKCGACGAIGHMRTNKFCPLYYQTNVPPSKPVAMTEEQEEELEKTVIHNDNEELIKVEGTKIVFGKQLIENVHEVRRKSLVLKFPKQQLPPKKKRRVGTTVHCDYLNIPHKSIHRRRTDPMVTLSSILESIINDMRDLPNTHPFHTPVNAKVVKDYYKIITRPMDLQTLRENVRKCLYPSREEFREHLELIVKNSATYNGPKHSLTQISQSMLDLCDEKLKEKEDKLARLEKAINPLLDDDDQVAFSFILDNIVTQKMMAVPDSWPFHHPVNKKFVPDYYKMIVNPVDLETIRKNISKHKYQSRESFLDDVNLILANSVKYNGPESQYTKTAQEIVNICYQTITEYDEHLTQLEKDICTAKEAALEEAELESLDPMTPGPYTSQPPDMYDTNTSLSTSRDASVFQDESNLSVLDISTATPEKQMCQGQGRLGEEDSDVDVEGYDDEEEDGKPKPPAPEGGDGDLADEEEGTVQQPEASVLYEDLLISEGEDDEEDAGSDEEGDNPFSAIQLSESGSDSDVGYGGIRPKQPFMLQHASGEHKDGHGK
Description: KAM-matrix competition in K562 lysate. It is filed as binding. The settings on record: relative to 0 uM KAM = 0. As to the method: Supplement 12953_2017_125_MOESM1_ESM.zip/MS_Supp Info.xlsx, sheet "KAM" | column: 1 uM KAM; 0.01 uM KAM

Where [1] appears, read: read-out: RB50 (the source's name).
Setting [2] is: KAM 0.001-10 uM, read-out: RB50 (the source's name).
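Throughout, for 0.001 uM KAM: median log10 fold change of treatment over DMSO control.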
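Throughout, for 0.1 uM KAM: median log10 fold change of treatment over DMSO control.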
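Throughout, for 10 uM KAM: median log10 fold change of treatment over DMSO control.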

T1 sequence (Q06187 whole entry): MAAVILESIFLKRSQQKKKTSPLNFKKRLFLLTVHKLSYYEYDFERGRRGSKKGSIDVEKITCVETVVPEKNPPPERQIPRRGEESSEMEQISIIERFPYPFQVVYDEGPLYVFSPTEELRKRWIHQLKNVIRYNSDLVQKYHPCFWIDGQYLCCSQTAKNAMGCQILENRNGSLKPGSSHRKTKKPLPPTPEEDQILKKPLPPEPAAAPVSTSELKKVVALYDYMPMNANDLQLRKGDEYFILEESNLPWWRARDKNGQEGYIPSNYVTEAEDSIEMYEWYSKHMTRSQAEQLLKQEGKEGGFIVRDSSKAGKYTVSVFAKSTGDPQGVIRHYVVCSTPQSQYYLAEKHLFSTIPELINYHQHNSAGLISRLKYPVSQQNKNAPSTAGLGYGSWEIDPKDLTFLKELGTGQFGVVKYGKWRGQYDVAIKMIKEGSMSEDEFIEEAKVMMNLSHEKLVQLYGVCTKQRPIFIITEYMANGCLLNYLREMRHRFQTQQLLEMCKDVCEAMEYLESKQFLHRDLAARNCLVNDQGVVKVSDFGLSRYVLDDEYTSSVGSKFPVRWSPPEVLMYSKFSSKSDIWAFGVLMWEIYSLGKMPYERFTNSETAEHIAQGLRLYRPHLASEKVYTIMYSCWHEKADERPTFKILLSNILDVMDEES
Chain of PSKH1 (P11801 whole entry): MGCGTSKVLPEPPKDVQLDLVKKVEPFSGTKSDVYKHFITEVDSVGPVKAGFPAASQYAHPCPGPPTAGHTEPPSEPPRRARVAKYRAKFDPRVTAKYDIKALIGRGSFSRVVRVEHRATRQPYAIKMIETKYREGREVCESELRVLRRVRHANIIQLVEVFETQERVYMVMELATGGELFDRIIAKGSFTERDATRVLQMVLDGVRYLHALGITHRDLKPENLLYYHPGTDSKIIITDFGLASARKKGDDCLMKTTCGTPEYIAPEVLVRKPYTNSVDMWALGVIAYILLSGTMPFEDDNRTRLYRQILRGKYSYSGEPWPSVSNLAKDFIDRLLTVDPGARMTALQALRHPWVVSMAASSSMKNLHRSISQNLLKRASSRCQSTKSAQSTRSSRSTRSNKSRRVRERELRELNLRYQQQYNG
Description for PSKH1: Data were visualized for further analysis using Spotfire DXP.

For `Cc1ccc(NC(=O)c2ccc(CN3CCN(C)CC3)cc2)cc1Nc1nccc(-c2cccnc2)n1` [Imatinib], the pIC50 against PSKH1 is under 5.00.
Turning to `N#CCc1ccc(Nc2nc(NCCCN)cc(Nc3cc(C4CC4)[nH]n3)n2)cc1` [KAM], the “median Log10 fold change” value is -0.05218 on BTK (0.001 uM KAM); -0.04172 on BTK (0.01 uM KAM); -0.1708 on BTK (0.1 uM KAM); -0.3888 at BTK (1 uM KAM); -0.5091 at BTK (10 uM KAM); -0.03702 at MAP3K9 (0.001 uM KAM). The “median Log10 fold change” value was 0.03625 at MAP3K9 (0.01 uM KAM), -0.05744 on MAP3K9 (0.1 uM KAM), -0.2576 at MAP3K9 (1 uM KAM) and -0.4734 on MAP3K9 (10 uM KAM). For the same molecule, the pIC50 was 6.25 at BTK (setting [1]), 5.75 on MAP3K9 (setting [1]), under 5.00 on MERTK (setting [2]) and under 5.00 at RPS6KC1 (setting [2]). Besides, the “0.001 uM KAM” value on MERTK (relative to 0 uM KAM = 0) is listed as -0.05728; on RPS6KC1 (relative to 0 uM KAM = 0) it was -0.005381. The “0.01 uM KAM” value on MERTK (relative to 0 uM KAM = 0) was -0.0237; on TAF1L, 0.1793. Moreover, the “0.1 uM KAM” value at MERTK (relative to 0 uM KAM = 0) is on record as -0.04893; on RPS6KC1 (relative to 0 uM KAM = 0), -0.07914. Further, the figures for the “1 uM KAM” value on MERTK (relative to 0 uM KAM = 0), on RPS6KC1 (relative to 0 uM KAM = 0) and at TAF1L were -0.1208, -0.09953 and -0.2683, respectively. Besides, the “10 uM KAM” value on MERTK (relative to 0 uM KAM = 0) is reported as -0.2454; on RPS6KC1 (relative to 0 uM KAM = 0) it was -0.2964.
